Among the data in ChEMBL document CHEMBL5678818, “Discovery of potent SOS1 inhibitors that block RAS activation via disruption of the RAS-SOS1 interaction” (Proc Natl Acad Sci U S A, 2019) are Activity values, retold here.

Assay [1] deals with Non-receptor tyrosine-protein kinase TYK2 (Homo sapiens) (UniProt P29597). Nature of the assay: Inhibition of TYK2 JH1 catalytic domain (unknown origin) assessed as residual activity at 1000 nM by KINOMEscan analysis relative to control.
Assay [2] has as its target T1, Mitogen-activated protein kinase kinase kinase 19 (Homo sapiens) (UniProt Q56UN5).
T1 sequence (whole entry): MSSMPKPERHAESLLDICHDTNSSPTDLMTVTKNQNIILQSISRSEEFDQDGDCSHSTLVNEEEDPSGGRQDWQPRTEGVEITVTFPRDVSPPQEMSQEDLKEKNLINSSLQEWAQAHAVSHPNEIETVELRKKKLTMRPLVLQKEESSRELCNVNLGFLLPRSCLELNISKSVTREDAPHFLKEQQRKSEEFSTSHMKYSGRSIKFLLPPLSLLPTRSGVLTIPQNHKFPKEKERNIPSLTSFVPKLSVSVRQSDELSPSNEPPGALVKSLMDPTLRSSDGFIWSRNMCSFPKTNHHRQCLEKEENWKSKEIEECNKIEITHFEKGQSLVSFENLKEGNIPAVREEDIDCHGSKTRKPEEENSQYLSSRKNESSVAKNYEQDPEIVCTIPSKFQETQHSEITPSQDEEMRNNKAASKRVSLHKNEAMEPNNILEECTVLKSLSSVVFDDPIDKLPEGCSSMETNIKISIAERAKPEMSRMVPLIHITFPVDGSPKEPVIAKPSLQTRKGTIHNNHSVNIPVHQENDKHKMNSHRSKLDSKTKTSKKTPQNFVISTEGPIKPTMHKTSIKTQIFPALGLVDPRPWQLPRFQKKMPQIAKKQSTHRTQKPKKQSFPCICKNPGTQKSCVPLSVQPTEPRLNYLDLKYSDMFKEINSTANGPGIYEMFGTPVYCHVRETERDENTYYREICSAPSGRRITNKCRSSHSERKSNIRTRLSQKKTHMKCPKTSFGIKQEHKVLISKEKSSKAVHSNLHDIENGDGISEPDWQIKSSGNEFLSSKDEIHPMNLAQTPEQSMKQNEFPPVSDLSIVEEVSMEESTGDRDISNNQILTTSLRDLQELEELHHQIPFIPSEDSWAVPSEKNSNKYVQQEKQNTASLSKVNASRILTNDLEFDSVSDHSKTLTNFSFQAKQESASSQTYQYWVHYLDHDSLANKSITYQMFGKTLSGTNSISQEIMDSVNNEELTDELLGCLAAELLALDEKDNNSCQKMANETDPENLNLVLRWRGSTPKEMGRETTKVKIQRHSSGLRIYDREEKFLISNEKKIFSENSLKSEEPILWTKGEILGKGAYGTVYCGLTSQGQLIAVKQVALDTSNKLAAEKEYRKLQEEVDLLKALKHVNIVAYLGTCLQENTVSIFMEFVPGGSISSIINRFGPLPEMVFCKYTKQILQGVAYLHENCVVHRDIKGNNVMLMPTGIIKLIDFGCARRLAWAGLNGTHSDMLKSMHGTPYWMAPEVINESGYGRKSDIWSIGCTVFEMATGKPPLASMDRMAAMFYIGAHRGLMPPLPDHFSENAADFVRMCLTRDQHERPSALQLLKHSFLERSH
Description: Inhibition of YSK4 (unknown origin) assessed as residual activity at 1000 nM by KINOMEscan analysis relative to control.

For assay [3], the system named is Epidermal growth factor receptor (Homo sapiens), P00533 [G719S]. Description: Inhibition of EGFR G719S mutant (unknown origin) assessed as residual activity at 1000 nM by KINOMEscan analysis relative to control.
For assay [4], the system named is Tyrosine-protein kinase ABL1 (Homo sapiens), P00519 [T315I]. Nature of the assay: Inhibition of nonphosphorylated ABL1 T315I mutant (unknown origin) assessed as residual activity at 1000 nM by KINOMEscan analysis relative to control.
Assay [5] deals with T2, Serine/threonine-protein kinase D1 (Homo sapiens) (UniProt Q15139).
T2 sequence (whole entry): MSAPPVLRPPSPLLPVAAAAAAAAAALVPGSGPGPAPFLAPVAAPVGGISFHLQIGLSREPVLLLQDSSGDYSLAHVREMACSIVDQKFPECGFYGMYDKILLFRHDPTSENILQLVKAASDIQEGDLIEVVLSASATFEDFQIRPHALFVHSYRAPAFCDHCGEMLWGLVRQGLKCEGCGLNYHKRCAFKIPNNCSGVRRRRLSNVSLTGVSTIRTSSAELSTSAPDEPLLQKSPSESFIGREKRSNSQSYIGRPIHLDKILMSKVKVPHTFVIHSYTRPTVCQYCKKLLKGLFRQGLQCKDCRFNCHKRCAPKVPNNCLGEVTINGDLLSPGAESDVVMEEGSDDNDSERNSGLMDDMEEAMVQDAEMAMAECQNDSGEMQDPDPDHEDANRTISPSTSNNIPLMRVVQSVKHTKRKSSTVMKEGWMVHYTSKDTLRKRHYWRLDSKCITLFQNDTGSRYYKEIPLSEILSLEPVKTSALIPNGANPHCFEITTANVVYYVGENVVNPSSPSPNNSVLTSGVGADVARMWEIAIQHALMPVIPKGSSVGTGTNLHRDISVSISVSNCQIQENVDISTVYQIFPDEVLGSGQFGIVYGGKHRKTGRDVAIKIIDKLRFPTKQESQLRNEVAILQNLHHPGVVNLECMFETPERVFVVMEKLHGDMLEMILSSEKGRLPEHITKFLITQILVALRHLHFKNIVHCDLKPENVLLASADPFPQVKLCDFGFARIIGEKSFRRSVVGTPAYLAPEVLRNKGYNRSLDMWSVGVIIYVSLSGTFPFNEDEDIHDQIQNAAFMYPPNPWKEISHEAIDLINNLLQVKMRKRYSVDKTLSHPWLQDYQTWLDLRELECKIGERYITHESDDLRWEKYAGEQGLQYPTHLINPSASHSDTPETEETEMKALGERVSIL
Nature of the assay: Inhibition of PRKD1 (unknown origin) assessed as residual activity at 1000 nM by KINOMEscan analysis relative to control.

The target in assay [6] is Macrophage-stimulating protein receptor (Homo sapiens) (UniProt Q04912). Nature of the assay: Inhibition of MST1R (unknown origin) assessed as residual activity at 1000 nM by KINOMEscan analysis relative to control.
Chain of Macrophage-stimulating protein receptor (Homo sapiens) (Q04912 25-304 limits assumed): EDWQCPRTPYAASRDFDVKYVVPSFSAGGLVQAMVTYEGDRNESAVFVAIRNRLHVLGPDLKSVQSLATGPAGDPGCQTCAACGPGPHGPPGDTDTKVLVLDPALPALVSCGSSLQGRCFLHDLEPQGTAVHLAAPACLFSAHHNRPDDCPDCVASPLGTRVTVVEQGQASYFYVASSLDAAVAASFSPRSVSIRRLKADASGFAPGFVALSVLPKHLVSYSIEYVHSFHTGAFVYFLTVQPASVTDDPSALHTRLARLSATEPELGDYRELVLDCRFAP
Chain of Macrophage-stimulating protein receptor (Homo sapiens) (Q04912 310-1400 limits assumed): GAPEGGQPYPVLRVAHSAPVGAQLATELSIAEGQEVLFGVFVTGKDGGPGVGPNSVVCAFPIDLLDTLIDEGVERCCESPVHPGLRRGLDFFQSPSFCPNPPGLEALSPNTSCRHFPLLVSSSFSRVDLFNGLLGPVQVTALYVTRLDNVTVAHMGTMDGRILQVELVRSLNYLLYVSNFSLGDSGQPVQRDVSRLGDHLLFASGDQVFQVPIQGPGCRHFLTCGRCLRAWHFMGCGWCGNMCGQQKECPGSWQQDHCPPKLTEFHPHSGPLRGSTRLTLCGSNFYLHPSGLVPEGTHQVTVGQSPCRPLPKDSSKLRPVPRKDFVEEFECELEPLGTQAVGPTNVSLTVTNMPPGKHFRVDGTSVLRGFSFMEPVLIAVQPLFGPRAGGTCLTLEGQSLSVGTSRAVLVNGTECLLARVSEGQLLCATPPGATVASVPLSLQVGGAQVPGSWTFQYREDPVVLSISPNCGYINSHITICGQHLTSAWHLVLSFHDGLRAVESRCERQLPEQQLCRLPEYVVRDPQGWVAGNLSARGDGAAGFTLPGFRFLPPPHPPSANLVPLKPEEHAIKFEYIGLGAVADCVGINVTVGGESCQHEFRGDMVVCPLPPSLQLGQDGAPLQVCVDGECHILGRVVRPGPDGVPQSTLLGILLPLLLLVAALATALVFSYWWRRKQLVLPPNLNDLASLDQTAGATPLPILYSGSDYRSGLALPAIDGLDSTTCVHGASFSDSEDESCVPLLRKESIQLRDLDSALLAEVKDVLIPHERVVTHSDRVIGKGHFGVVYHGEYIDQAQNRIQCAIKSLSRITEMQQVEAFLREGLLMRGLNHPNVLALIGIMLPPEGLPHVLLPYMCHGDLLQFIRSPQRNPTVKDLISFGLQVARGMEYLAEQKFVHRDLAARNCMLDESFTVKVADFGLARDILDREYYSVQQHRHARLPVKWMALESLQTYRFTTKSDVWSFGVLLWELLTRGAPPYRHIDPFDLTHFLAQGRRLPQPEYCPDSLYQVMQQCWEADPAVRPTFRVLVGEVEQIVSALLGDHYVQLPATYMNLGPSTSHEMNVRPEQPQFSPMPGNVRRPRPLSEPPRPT

Chain of Non-receptor tyrosine-protein kinase TYK2 (Homo sapiens) (P29597 whole entry, the tested form may be a part): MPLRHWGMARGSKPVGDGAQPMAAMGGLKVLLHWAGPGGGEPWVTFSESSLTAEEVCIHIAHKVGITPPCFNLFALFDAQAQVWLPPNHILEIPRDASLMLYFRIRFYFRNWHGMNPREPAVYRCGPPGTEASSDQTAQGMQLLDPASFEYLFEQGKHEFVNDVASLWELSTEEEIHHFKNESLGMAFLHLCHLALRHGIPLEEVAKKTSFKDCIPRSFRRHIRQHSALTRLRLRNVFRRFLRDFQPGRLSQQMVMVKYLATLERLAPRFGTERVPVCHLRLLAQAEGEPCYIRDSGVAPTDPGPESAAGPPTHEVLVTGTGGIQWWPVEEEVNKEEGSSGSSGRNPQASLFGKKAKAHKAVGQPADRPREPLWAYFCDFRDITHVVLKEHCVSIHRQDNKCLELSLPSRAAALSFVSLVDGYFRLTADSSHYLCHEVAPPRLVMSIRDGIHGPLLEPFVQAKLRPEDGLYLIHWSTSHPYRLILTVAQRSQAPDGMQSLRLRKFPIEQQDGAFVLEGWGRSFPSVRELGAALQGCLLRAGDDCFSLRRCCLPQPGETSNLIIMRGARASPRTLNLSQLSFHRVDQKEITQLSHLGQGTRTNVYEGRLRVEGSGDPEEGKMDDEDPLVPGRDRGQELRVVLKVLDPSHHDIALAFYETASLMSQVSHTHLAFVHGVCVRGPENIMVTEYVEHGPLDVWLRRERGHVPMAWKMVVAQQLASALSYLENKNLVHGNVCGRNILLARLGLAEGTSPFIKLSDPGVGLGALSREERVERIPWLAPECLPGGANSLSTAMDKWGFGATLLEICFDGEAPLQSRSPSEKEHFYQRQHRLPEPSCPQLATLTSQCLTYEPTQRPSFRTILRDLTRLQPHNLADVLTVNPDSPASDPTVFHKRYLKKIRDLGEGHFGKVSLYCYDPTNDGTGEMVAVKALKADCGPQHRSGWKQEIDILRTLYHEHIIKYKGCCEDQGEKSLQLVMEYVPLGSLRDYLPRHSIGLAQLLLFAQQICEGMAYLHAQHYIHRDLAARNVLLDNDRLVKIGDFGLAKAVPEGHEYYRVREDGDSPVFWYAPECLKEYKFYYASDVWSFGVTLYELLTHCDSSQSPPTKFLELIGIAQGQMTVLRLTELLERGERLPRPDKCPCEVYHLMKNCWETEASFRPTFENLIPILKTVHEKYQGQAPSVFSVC

Turning to `COc1cc2nc(C)nc(N[C@H](C)c3cccc(-c4cn[nH]c4)c3)c2cc1OC`, the Activity turned out to be 77% in assay [1]; 84% in assay [2]; 76% in assay [3]; 95% in assay [4]; 85% in assay [5]; 75% in assay [6].

On to `COc1cc2ncnc(N[C@H](C)c3cccc4ccccc34)c2cc1OC`, for which the Activity came to 82% in assay [1]; 90% in assay [2]; 1.2% in assay [3]; 100% in assay [4]; 95% in assay [5]; 100% in assay [6].
